Entries after “also recorded” stand apart in the source; their conditions may differ.
What was measured:
[1] = tested on: PSN1 cells; test: Colony formation assay; format: cell-based; conditions: for effect on clonogenic survival: PSN1, cold compounds at amounts equivalent to [123I]CC1
Description: (§1) Separate aliquots of cells were irradiated (0-10 Gy, using a ^137Cs irradiator, 0.8 Gy/min). Cells were then washed, a fraction of which was then transferred to 6-well plates containing 2 mL of growth medium, and colony formation was measured two weeks after treatment. Colony numbers were normalized to the number of cells transferred to the plates to obtain plating efficiency, which was in turn normalized to that of untreated cells.
(§2) Following the protocol outlined in part A hereinbefore, colony formation assays were conducted on aliquots of PSN1, U87MG and MDA-MB-231 cells.

[2] = tested on: U87MG cells; test: Colony formation assay; format: cell-based, Human; conditions: for effect on clonogenic survival: cold compounds at amounts equivalent to [123I]CC1
Description: as §1, §2

[3] = molecular target: PARP6 (Homo sapiens, UniProt Q2NL67); test: PARP family enzymatic activity screening at 10 nM (BPS assay kits); conditions: lesser degree than olaparib, rucaparib and other established PARP inhibitors
Chain of PARP6 (Q2NL67 whole entry): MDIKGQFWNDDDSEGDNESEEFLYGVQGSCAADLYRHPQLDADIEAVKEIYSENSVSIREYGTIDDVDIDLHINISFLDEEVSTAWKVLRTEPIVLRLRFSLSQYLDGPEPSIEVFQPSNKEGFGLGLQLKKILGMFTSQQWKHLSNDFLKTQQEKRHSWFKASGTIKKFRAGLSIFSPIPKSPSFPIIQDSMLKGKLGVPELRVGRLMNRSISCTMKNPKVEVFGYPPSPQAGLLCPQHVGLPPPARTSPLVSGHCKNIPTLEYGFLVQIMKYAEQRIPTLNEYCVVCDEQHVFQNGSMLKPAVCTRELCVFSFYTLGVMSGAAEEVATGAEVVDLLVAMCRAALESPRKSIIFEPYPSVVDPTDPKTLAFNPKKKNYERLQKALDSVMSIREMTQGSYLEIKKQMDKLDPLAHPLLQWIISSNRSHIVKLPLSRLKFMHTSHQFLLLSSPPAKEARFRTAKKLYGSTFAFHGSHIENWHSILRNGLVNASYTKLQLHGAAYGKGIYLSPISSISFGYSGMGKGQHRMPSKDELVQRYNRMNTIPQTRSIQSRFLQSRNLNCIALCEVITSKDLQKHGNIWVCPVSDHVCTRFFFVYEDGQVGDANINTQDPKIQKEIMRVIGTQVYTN

[4] = tested on: AsPC1 cells; test: In vitro uptake and specificity of [123I]CC1; format: cell-based; conditions: for uptake of [123I]CC1 on addition of cold blocker: AsPC1, blocker 100 μM, 45 min before tracer
Description: (§3) AsPC1 (1×10^5 cells/well), PSN1 cells (7.5×10^4 cells/well) or U87MG (1×10^5 cells/well) were seeded separately in 24-well plates containing growth medium and allowed to adhere for at least 20 h. Cells were washed and exposed to cold, unlabelled PARP inhibitors (100 μM, in a total of 270 μL growth medium) for 45 min at 37° C. […] Cell culture medium was removed, and cells washed with PBS. Cells were lysed using RIPA buffer ([…] Tris pH 8.0, 1% NP40, 0.5% sodium deoxycholate, 0.1% sodium dodecyl sulphate, and 150 mM sodium chloride) for 15 min at room temperature, and the amount of ^123I in cell lysates was measured using an automated gamma counter (PerkinElmer). […] The amount of ^123I in cell lysates was measured as above.
(§4) AsPC1 (1×10^5 cells/well), PSN1 (7.5×10^4 cells/well) or U87MG (1×10^5 cells/well) were seeded as described in part A hereinbefore. CAPAN-1 cells (7.5×10^4 cells/well) were seeded following the same protocol described in part A hereinbefore.

[5] = tested on: PSN1 cells; test: In vitro uptake and specificity of [123I]CC1; format: cell-based; conditions: for uptake of [123I]CC1 on addition of cold blocker: PSN1, blocker 100 μM, 45 min before tracer
Description: as §3, §4

[6] = tested on: U87MG cells; test: In vitro uptake and specificity of [123I]CC1; format: cell-based, Human; conditions: for uptake of [123I]CC1 on addition of cold blocker: blocker 100 μM, 45 min before tracer
Description: as §3, §4

[7] = tested on: PSN1 xenografts; test: Biodistribution of [123I]CC1 in xenograft-bearing mice; format: in vivo; conditions: for tumour uptake: 1 h after i.v. 3 MBq
Description: PSN1 cells were harvested using trypsin, washed twice with PBS, and reconstituted in PBS: Matrigel® Matrix High Concentration (1:1). Cell suspensions (PSN1: 2×10^6 […]) were injected subcutaneously in the front right flank of the mice, and allowed to grow to a size of approximately 200 mm^3.
To evaluate the specificity of tumour uptake, an excess of unlabelled rucaparib (0.5 mg) was co-administered as blocking agent. Either after 60 or 120 min after radiolabelled compound injection, animals were euthanised. Selected organs, tissues and blood were removed, and the percentage of the injected dose per gram of tissue (% ID/g) was determined, using a HIDEX automated gammacounter.
(§5) Following the protocol described in part A hereinbefore, PSN1, U87MG, or MDA-MB-231 cells were harvested using trypsin, washed twice with PBS, and reconstituted in PBS: Matrigel® Matrix High Concentration (1:1). Cell suspensions were injected subcutaneously in the hind right flank and allowed to form tumours. […] To evaluate the specificity of tumour uptake, an excess of unlabelled rucaparib (0.5 mg) was co-administered as a blocking agent in some animals. Either 60 or 120 min after radiolabelled compound injection, animals were euthanised (n=3 per group). Selected organs, tissues and blood were removed, and the percentage of the injected activity per gram of tissue (% IA/g) was determined, using a HIDEX automated gammacounter.

[8] = tested on: AsPC1 cells; test: Flow cytometry of nuclear protein expression post [123I]CC1 treatment; format: cell-based; conditions: 50 kBq
Description: (§6) AsPC1, PSN1 or U87MG (1×10^6 cells/well in 2 mL growth medium) were seeded in 6-well plates and allowed to adhere for at least 20 h. […] Cells were harvested using trypsin-EDTA solution and washed with FACS buffer (PBS, 2% FBS, 1 mM EDTA, 0.1% NaN3) and centrifuged at 500×g for 5 min. Immunostaining was performed using the Foxp3/transcription factor staining buffer set (eBioscience™, USA). Intracellular staining was conducted in permeabilization buffer for 30 min at 4° C. in the dark using the following antibodies separately: AF488-conjugated anti-PARP-1 (1:100; sc-80070), AF594-conjugated anti-PARP-2 (1:100; sc-393310) and AF488-conjugated anti-PARP-3 (1:100; sc-390771) from Santa Cruz Biotechnology Inc. (USA), AF488-conjugated anti-IMPDH2 (1:500; ab-200770) from Abcam plc. (UK), yH2AX (1:1000; JBW301 Merck-Millipore). Fixable viability dye ef780 (1:4000; eBioscience™; 65-0865-14) was used for live/dead discrimination. Fixation of immunostained cells was performed for 15 min at RT. Flow cytometry was conducted using a CytoFLEX flow cytometer (Beckman Coulter, USA), with appropriate laser and filters, positive and negative controls. Data were analyzed using FlowJo™ (Tree Star Inc., BD Biosciences, USA).
(§7) Quantification of AsPC1, PSN1 or U87MG cells was conducted following the protocol outlined in part A hereinbefore. Relative expression of PARP1 and 2 was measured using flow cytometry. γH2AX expression, as a measure for DNA double strand break damage, was assessed in a similar manner.

[9] = tested on: PSN1 cells; test: as above; format: cell-based; conditions: PSN1, 24 h after 1-hour exposure, 50 kBq
Description: as §6, §7

[10] = tested on: U87MG cells; test: as above; format: cell-based, Human; conditions: 24 h after 1-hour exposure, 50 kBq
Description: as §6, §7

[11] = tested on: MDA-MB-231 xenografts; test: Biodistribution of [123I]CC1 in xenograft-bearing mice; format: in vivo; conditions: 2 h after i.v. 3 MBq
Description: as §5

[12] = tested on: U87MG xenografts; test: as above; format: in vivo; conditions: 2 h after i.v. 3 MBq
Description: as §5

[13] = Blood clearance by VOI analysis of dynamic imaging; format: in vivo; conditions: PSN1 xenograft-bearing mice, i.v. 3 MBq; CI95 1.64-2.09 min
Description: Images were analysed using VOI-based analysis, using PMOD.
In a selected number of animals (n=3), animals were anaesthetised using 2% isoflurane, and dynamic SPECT/CT imaging was performed over 1 h, using a MILabs VECTor4 camera, equipped with an ultra-high-resolution rat/mouse collimator (1.8 mm), followed by a cone-beam CT scan (55 kV, 0.19 mA) for anatomical reference and attenuation correction. Anesthesia was maintained using 2.5% isoflurane throughout the duration of image acquisition. SPECT images were reconstructed using U-SPECT-Rec3.22 software (MILabs, Utrecht, The Netherlands), applying a pixel-based algorithm, ordered subset expectation maximisation (OSEM) with 4 subsets, 4 iterations and 0.6 mm voxel size for lodine-123 (energy window settings 141.3-172.7 keV). Reconstructed SPECT and CT images were viewed and analyzed using PMOD v.3.37 (PMOD Technologies, Zurich, Switzerland).

[14] = tested on: PSN1 xenografts; test: In vivo therapy study; conditions: single i.v. 3 MBq
Description: […]. Mice and tumour sizes were monitored daily. Study endpoint was determined based humane endpoints, including a tumour size >1200 mm^3, or weight loss >15%.
[…]. Mice were monitored daily. Tumour sizes were determined by calliper. Study endpoints were based on humane endpoints, including a tumour size >1000 mm^3, or weight loss >15%.

[15] = tested on: MDA-MB-231 xenografts; test: In vivo therapy study; design: species or system mice; conditions: single i.v. 3 MBq
Description: (§8) Mice were monitored daily. Tumour sizes were determined by calliper. Study endpoints were based on humane endpoints, including a tumour size >1000 mm^3, or weight loss >15%.

[16] = tested on: U87MG xenografts; test: In vivo therapy study; design: species or system mice; conditions: single i.v. 3 MBq
Description: as §8

[17] = Toxicology: H&E staining of normal tissues; format: in vivo, C57/Bl6 mice; conditions: 3 MBq i.v.
Text: Liver, spleen, kidneys and intestines were investigated by an experienced veterinary pathologist and compared to age-matched non-treated control animals.
Tissues were further stained for γH2AX to investigate DNA double strand break damage, and livers were additionally stained for PAS, as a marker for glycogen storage.

[18] = AsPC1, 24 h after 1-hour exposure

With `O=C(c1cc(Cc2n[nH]c(=O)c3ccccc23)ccc1[123I])N1CCN(C(=O)C2CC2)CC1` [CC1] the “effect on clonogenic survival” value [1] was “no effect”, the “effect on clonogenic survival” value [2] was “no effect” and the “inhibition of PARP6 catalytic activity by a single dose” value [3] was “able to inhibit”.

For `O=C(c1cc(Cc2n[nH]c(=O)c3ccccc23)ccc1F)N1CCN(C(=O)C2CC2)CC1` [olaparib, reference compound], the “effect on clonogenic survival” value [1] was “no effect” and the “effect on clonogenic survival” value [2] was “no effect”.

With `COc1c(C)c2c(c(O)c1C/C=C(\C)CCC(=O)OCCN1CCOCC1)C(=O)OC2` [m.mofetil, Mycophenolate mofetil, reference compound] the “uptake of [123I]CC1 on addition of cold blocker” value (“uptake … of cold blocker” below) [4] was “reduced”, the “uptake … of cold blocker” value [5] was “reduced” and the “uptake … of cold blocker” value [6] was “reduced”.

With `O=c1c(-c2ccc(O)cc2)coc2cc(O[C@@H]3O[C@H](CO)[C@@H](O)[C@H](O)[C@H]3O)ccc12` [daidzin, reference compound] the “uptake … of cold blocker” value [4] was “reduced”, the “uptake … of cold blocker” value [5] was “reduced” and the “uptake … of cold blocker” value [6] was “reduced”.

In the case of `CNCc1ccc(-c2[nH]c3cc(F)cc4c3c2CCNC4=O)cc1` [rucaparib, reference compound], the “tumour uptake of [123I]CC1 on co-administration of excess blocker” value ([7]; PSN1 xenografts, 0.5 mg blocker, 2 h, P<0.05) is reported as “significantly reduced tumour uptake”.

In the case of `O=C(c1cc(Cc2n[nH]c(=O)c3ccccc23)ccc1[123I])N1CCN(C(=O)C2CC2)CC1` [[^123I]CC1], the “time at which cell uptake plateaus” value ([4]; AsPC1, 37° C.) is reported as 1 h, the cell uptake ([4]; AsPC1, Part B) is reported as “around 0.3 fmol/cell” and the “time at which cell uptake plateaus” value ([5]; PSN1, 37° C.) is reported as 1 h. The cell uptake ([5]; PSN1, Part B) was “around 0.3 fmol/cell”, the “time at which cell uptake plateaus” value ([6]; 37° C.) was 1 h and the cell uptake ([6]; Part B) was “around 0.3 fmol/cell”. The “clonogenic survival IC50” value ([1]; PSN1, 60 min exposure) was 1 kBq/mL, the “effect on clonogenic survival” value [1] was “far less pronounced” and the “amount from which clonogenic survival is significantly reduced” value ([2]; 1 h exposure) was at least 10 Bq. For the same compound, the “clonogenic survival IC50” value ([2]; in 200 μl, 60 min exposure) was 631±35 Bq, the PARP1 expression [8, 18] was “increased expression” and the PARP2 expression [8, 18] was “increased expression”. The “γH2AX expression (DNA double strand breaks)” value (from here on “γH2AX expression”) ([8]; AsPC1, 24 h after exposure) was “increased significantly”, the PARP1 expression [9] was “increased expression” and the PARP2 expression [9] was “increased expression”. For the same compound, the “γH2AX expression” value [9] was “increased significantly; also recorded: increased markedly”, the PARP1 expression [10] was “increased expression” and the PARP2 expression [10] was “increased expression”. For the same compound, the “γH2AX expression” value [10] was “increased significantly; also recorded: increased markedly”, the “clearance pattern (high uptake in liver and intestines)” value ([7]; PSN1 xenograft-bearing mice, 3 MBq, 20 GBq/μmol) was “hepatobiliary clearance pattern” and the tumour uptake ([7]; PSN-1 xenografts, Part A) was 0.9±0.06 % ID/g. The tumour uptake ([7]; PSN-1 xenografts, Part B) was 0.9±0.06 % IA/g, the “amount remaining in tumour” value ([7]; PSN-1 xenografts, 24 h after injection) was 0.033±0.017 % IA/g and the tumour uptake [11] was 0.19±0.01 % IA/g. The tumour uptake [12] was 0.46±0.01 % IA/g, the “blood clearance, weighed half-life” value [13] was 1.86 min and the tumour growth ([14]; PSN1 xenografts, vs cold unlabelled CC1, p=0.04) was “significant inhibition of tumour growth”. The “gross toxicity (weight loss of the mice)” value [14] was “without signs of gross toxicity”, the tumour growth response [15] was “not affected in their growth” and the tumour growth response [16] was “responded less than PSN-1 xenografts”. For the same compound, the “shrunken (pyknotic) hepatocytes in liver” value [17] was 0.1-0.2 per field, the “histopathology, intestines” value ([17]; 24 h and 28 days) was “minimal proprial infiltration by lymphocytes and plasma cells” and the “histopathology, kidneys” value ([17]; 24 h and 28 days) was “no observable changes”. The “histopathology, liver: the one marked effect” value ([17]; 24 h and 28 days) was “diffuse cytoplasmic pallor/rarefaction” and the “histopathology, spleen” value ([17]; 24 h and 28 days) was “mild to moderate numbers of hemosiderophages”.

Reference: US20250170281A1, “ANTI-CANCER TREATMENT WITH A RADIOACTIVE PARP INHIBITOR” (The Chancellor, Masters and Scholars of the University of …, priority 2022, published 2025)
